Test results published in patent US9937165B2, “Pharmacological chaperones for treating obesity” (Amicus Therapeutics, Inc., priority 2005, dated 2018).
Values joined by “and” are separate entries in the source; they are usually repeats but may differ in a detail not shown here. Equal entries are not always repeated.

How the values were obtained:
[1] = molecular target: MC4R over MC3R (Homo sapiens, UniProt P32245); settings: cited from earlier work
[2] = molecular target: T1, MC4R (Homo sapiens, UniProt P32245); settings: MC4R antagonist; cited from earlier work
[3] = molecular target: T1, MC4R; settings: cited from earlier work
[4] = molecular target: T2, hMC4R mutant N62S (Homo sapiens, UniProt P32245, N62S); experiment: Pharmacological chaperone assay, cell surface expression by FACS, mutant N62S; format: cell-based; settings: 12 h
T2 construct: expressed in transfected cells; host or cells: HEK 293 cells, transient transfection
Description: (§1) HEK 293 cells were transiently transfected with wild-type (WT) or the following hMC4R mutants double tagged with 3HA and Venus (Enhanced Yellow Green Fluorescent Protein; EYFP): S58C; N62S; R165W; R165Q, and P299H.
(§2) FACS analysis was performed after fluorescently labeling cells with primary anti-HA.11 antibody (mouse; 1:1000 dilution) and the secondary antibody coupled to Alexa 647 (goat anti-mouse; 1:1000 dilution) dilution. Live cells (propidium iodide negative) were sorted into the following two relevant populations: • P4: Total YFP positive cells (representative of total MC4R expression) • P5: Percent of cells positive for both YFP and Alexa 647 (Alexa and YFP positive cells)/(YFP positive cells+Alexa and YFP positive cells) (representative of cell surface expression)
(§3) Briefly, cells harboring each of the above-referenced MC4R mutants (transfected as described in Example 3) were cultured with each of the antagonist compounds at concentrations of 1.0 μM and 10 μM for 12 h and evaluated for cell surface expression of MC4R using fluorescent activated cell sorting analysis as described above. Cell surface expression levels are compared between treatment and basal conditions. Percent Gain is determined according to the following: [Gain=[(% of surface expression (with treatment)−% of surface expression (w/o treatment))/% of surface expression (w/o treatment)]*100.

[5] = molecular target: T3, hMC4R mutant R165Q (Homo sapiens, UniProt P32245, R165Q); experiment: Pharmacological chaperone assay, cell surface expression by FACS, mutant R165Q; format: cell-based; settings: 12 h
T3 construct: expressed in transfected cells; host or cells: HEK 293 cells, transient transfection
Description: as §1, §2, §3

[6] = molecular target: T4, hMC4R mutant S58C (Homo sapiens, UniProt P32245, S58C); experiment: Pharmacological chaperone assay, cell surface expression by FACS, mutant S58C; format: cell-based; settings: 12 h
T4 construct: expressed in transfected cells; host or cells: HEK 293 cells, transient transfection
Description: as §1, §2, §3

[7] = molecular target: T5, hMC4R mutant P299H (Homo sapiens, UniProt P32245, P299H); experiment: Pharmacological chaperone assay, cell surface expression by FACS, mutant P299H; format: cell-based; settings: 12 h
T5 construct: expressed in transfected cells; host or cells: HEK 293 cells, transient transfection
Description: as §1, §2, §3

[8] = molecular target: T6, hMC4R mutant R165W (Homo sapiens, UniProt P32245, R165W); experiment: Pharmacological chaperone assay, cell surface expression by FACS, mutant R165W; format: cell-based; settings: 12 h
T6 construct: expressed in transfected cells; host or cells: HEK 293 cells, transient transfection
Description: as §1, §2, §3

[9] = molecular target: T7, α-Galactosidase A (α-Gal A) (Homo sapiens, UniProt P06280); experiment: Phase I study of DGJ, WBC α-Gal A enzymatic activity; format: in vivo; set-up: α-Gal A activity was calculated in white blood cells (WBC) before dosing began; endogenous in cells
T7 sequence (P06280 32-429): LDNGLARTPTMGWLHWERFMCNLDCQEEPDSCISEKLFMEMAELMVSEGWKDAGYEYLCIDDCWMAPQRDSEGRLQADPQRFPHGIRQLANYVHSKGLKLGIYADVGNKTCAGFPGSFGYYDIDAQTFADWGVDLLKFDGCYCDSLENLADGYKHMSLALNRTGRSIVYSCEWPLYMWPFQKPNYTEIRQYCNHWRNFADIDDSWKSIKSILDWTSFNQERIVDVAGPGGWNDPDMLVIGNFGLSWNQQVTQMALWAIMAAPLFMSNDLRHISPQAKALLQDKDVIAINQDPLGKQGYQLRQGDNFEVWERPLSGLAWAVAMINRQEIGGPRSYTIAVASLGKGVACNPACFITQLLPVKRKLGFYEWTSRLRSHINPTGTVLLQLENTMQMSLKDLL
Description: (§4) Subjects were housed in the treatment facility from 14 hours prior to dosing until 24 hours after dosing. Meals were controlled by schedule and subjects remained abulatory for 4 hours post drug administration.
Blood samples (10 mL each) were collected in blood collection tubes containing EDTA and WBC extracted before dosing and at the following times thereafter: 100 hours, 150 hours, and 336 hours. Samples were treated as described above, and WBC α-Gal A enzymatic activity levels were determined.

[10] = Phase I study of DGJ, safety and tolerability; format: in vivo, human
Description: as §4
Safety was determined by evaluating vital signs, laboratory parameters (serum chemistry, hematology, and urinalysis), ECGs, physical examination and by recording adverse events during the Treatment Period.
Safety data including laboratory evaluations, physical exams, adverse events, ECG monitoring and vital signs assessments were summarized by treatment group and point of time of collection. Descriptive statistics (arithmetic mean, standard deviation, median, minimum and maximum) were calculated for quantitative safety data as well as for the difference to baseline. Frequency counts were compiled for classification of qualitative safety data.
Adverse events were coded using the MedDRA version 7.0 dictionary and summarized by treatment for the number of subjects reporting the adverse event and the number of adverse events reported. A by-subject adverse event data listing including verbatim term, coded term, treatment group, severity, and relationship to treatment was provided. Concomitant medications and medical history were listed by treatment.

[11] = molecular target: T7, α-Galactosidase A (α-Gal A); set-up: host or cells: normal lymphoblasts (endogenous enzyme); settings: normal lymphoblasts cultured in vitro with DGJ; cited from earlier work
[12] = Phase I study of DGJ, pharmacokinetics in plasma and urine; format: in vivo, human
Description: as §4
Blood samples (10 mL each) were collected in blood collection tubes containing EDTA before dosing and at the following times thereafter: 0.25, 0.5, 0.75, 1, 1.5, 2, 3, 4, 5, 6, 7, 8, 9, 10, 11 and 12 hours. Blood samples were cooled in an ice bath and centrifuged under refrigeration as soon as possible. Plasma samples were divided into two aliquots and stored at […]. pending assay. At the end of the study, all samples were transferred to MDS Pharma Services Analytical Laboratories (Lincoln) for analysis.
Pharmacokinetic parameters were summarised by treatment group using descriptive statistics (arithmetic means, standard deviations, coefficients of variation, sample size, minimum, maximum and median).

T5 sequence (P32245 whole entry P299H): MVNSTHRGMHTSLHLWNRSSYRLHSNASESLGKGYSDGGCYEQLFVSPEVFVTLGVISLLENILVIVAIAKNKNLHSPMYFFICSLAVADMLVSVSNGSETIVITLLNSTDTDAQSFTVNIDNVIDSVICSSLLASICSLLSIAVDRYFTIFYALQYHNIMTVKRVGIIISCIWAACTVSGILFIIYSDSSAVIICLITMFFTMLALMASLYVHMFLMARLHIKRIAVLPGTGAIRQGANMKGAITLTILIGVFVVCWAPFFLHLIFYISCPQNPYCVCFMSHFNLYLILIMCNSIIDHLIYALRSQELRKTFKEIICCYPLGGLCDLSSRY
T1 sequence (P32245 whole entry): as the sequence (P32245 whole entry P299H) above, with H299P counted along it
T4 sequence (P32245 whole entry S58C): as the sequence (P32245 whole entry P299H) above, with S58C, H299P counted along it
T6 sequence (P32245 whole entry R165W): as the sequence (P32245 whole entry P299H) above, with R165W, H299P counted along it
T3 sequence (P32245 whole entry R165Q): as the sequence (P32245 whole entry P299H) above, with R165Q, H299P counted along it
T2 sequence (P32245 whole entry N62S): as the sequence (P32245 whole entry P299H) above, with N62S, H299P counted along it
Sequence of MC4R over MC3R (P32245 whole entry): as the sequence (P32245 whole entry P299H) above, with H299P counted along it

Ac-Nle-c[Asp-Cpe-DNal(2′)-Arg-Trp-Lys-NH(2) [SHU9119 analogue, cyclic MC4R antagonist of Grieco et al., J Med Chem 2002]
selectivity over MC3R [1]: 200 fold
IC50 [2]: 0.51 nM

O=C(N[C@H](Cc1ccc(Cl)cc1)C(=O)N1CCN(c2ccccc2CN2CCCC2)CC1)[C@H]1Cc2ccccc2CN1 [Compound 2]
EC50 [3]: 39 nM

Ac-Nle-c[Asp-Che-DNal(2′)-Arg-Trp-Lys-NH(2) [SHU9119 analogue, cyclic MC4R antagonist of Grieco et al., J Med Chem 2002]
selectivity over MC3R [1]: 100 fold
IC50 [2]: 0.48 nM

Br.COc1ccc([N+](=O)[O-])cc1CSc1ccccc1C1=NCCCN1 [Compound 4]
% Gain in cell surface expression ([4]; 1 μM): 6.25%
% Gain in cell surface expression ([4]; 10 μM): 212.5%
% Gain in cell surface expression ([5]; 1 μM): 91.7%
% Gain in cell surface expression ([5]; 10 μM): 508%
% Gain in cell surface expression ([6]; 1 μM): 60%
% Gain in cell surface expression ([6]; 10 μM): 130%
% Gain in cell surface expression ([7]; 1 μM): 11.11%
% Gain in cell surface expression ([7]; 1 μM, listed as compound shown in FIG. 6): no effect
% Gain in cell surface expression ([7]; 10 μM): 38.9%
% Gain in cell surface expression ([7]; 10 μM, listed as compound shown in FIG. 6): no effect
% Gain in cell surface expression ([8]; 1 μM): 150%
% Gain in cell surface expression ([8]; 10 μM): 675%

OC[C@H]1NC[C@H](O)[C@@H](O)[C@H]1O [DGJ, 1-deoxygalactonojirimycin]
inhibition of WBC α-Gal A enzymatic activity ([9]; 50 mg b.i.d. or 150 mg b.i.d.): did not inhibit
WBC α-Gal A enzymatic activity, % pre-dose levels ([9]; 50 mg b.i.d., 150 hours): 130%
WBC α-Gal A enzymatic activity, % pre-dose levels ([9]; 50 mg b.i.d., 336 hours): 145%
WBC α-Gal A enzymatic activity, % pre-dose levels ([9]; 150 mg b.i.d., 100 hours): 150%
WBC α-Gal A enzymatic activity, % pre-dose levels ([9]; 150 mg b.i.d., 150 hours): 185%
WBC α-Gal A enzymatic activity, % pre-dose levels ([9]; 150 mg b.i.d., 336 hours): 185%
safety and tolerability ([10]; 50 mg b.i.d. and 150 mg b.i.d., healthy male subjects): safe and well tolerated
adverse events (AEs) ([10]; 50 mg b.i.d. or 150 mg b.i.d., healthy male subjects): no subject presented with AEs
vital sign, ECG, or physical examination parameter ([10]; throughout the study): No clinically relevant abnormality
increase of α-Gal A activity [11]: 30%
tmax ([12]; 50 mg b.i.d. oral, Day 1): 2.9 ± 0.4 h
t½ ([12]; 50 mg b.i.d. oral, Day 1): 2.5 h
12 h cumulative renal excretion ([12]; 50 mg b.i.d. oral, Day 1, 12-hour post dose period): 16% and 16 ± 6%
Cmax ([12]; 50 mg b.i.d. oral, Day 1, plasma): 2.3 ± 0.3 µM
Cmin ([12]; 50 mg b.i.d. oral, Day 7): 0.4 ± 0.03 µM
tmax ([12]; 50 mg b.i.d. oral, Day 7): 2.5 ± 0.4 h
12 h cumulative renal excretion ([12]; 50 mg b.i.d. oral, Day 7, 12-hour post dose period): 48% and 48 ± 7%
Cmax ([12]; 50 mg b.i.d. oral, Day 7, plasma): 39 ± 0.5 µM
tmax ([12]; 150 mg b.i.d. oral, Day 1): 3.1 ± 0.4 h
t½ ([12]; 150 mg b.i.d. oral, Day 1): 2.4 h
12 h cumulative renal excretion ([12]; 150 mg b.i.d. oral, Day 1, 12-hour post dose period): 42% and 42 ± 7%
Cmax ([12]; 150 mg b.i.d. oral, Day 1, plasma): 11.3 ± 1.5 µM
Cmin ([12]; 150 mg b.i.d. oral, Day 7): 1.2 ± 0.1 µM
tmax ([12]; 150 mg b.i.d. oral, Day 7): 2.9 ± 0.4 h
12 h cumulative renal excretion ([12]; 150 mg b.i.d. oral, Day 7, 12-hour post dose period): 60% and 60 ± 5%
Cmax ([12]; 150 mg b.i.d. oral, Day 7, plasma): 10.8 ± 1.4 µM
time of peak concentrations, on average ([12]; all dose levels): approximately 3 hours
dose dependence of Cmax ([12]; doses increased from 50 mg to 150 mg): increased in a dose-proportional manner
